In this test the test system is TPM3-NTRK1-wt IC50 / primary target (e.g. CD74-ROS1-wt) IC50, Ba/F3 cells. Nature of the test: Cell assay TRKA selectivity (TRKA potency divided by primary target potency). It is filed as cell-based. As to conditions: for TPM3-NTRK1-wt/CD74-ROS1-G2032R: TRKA selectivity ratio: TPM3-NTRK1-wt IC50 / CD74-ROS1-G2032R IC50, Ba/F3 cells; for TPM3-NTRK1-wt/CD74-ROS1-wt: TRKA selectivity ratio: TPM3-NTRK1-wt IC50 / CD74-ROS1-wt IC50, Ba/F3 cells; for TPM3-NTRK1-wt/EML4-ALK-L1196M-G1202R: TRKA selectivity ratio: TPM3-NTRK1-wt IC50 / EML4-ALK-L1196M-G1202R IC50, Ba/F3 cells; for TPM3-NTRK1-wt/EML4-ALK-wt: TRKA selectivity ratio: TPM3-NTRK1-wt IC50 / EML4-ALK-wt IC50, Ba/F3 cells. The essentials: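 Ratio of TRKA to primary-target cellular IC50 (e.g. TPM3-NTRK1-wt/CD74-ROS1-wt), grouped into bins A >30, B >10, C ≥1, D <1. Each IC50 came from engineered Ba/F3 fusion lines grown without IL-3, dosed for 72 h and read as CellTiter-Glo luminescence, with a four-parameter logistic fit.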

The structures appear in SMILES notation.

For the compound `CCc1noc2c1-c1cnc(N)c(n1)O[C@H](C)c1cc(F)ccc1-c1nn(C)cc1C2` [Example 162, (19R)-3-ethyl-16-fluoro-10,19-dimethyl-5,20-dioxa-4,10,11,23,25-pentaazapentacyclo[19.3.1.0^2,^6.0^8,^12.0^13,^18]pentacosa-1(24),2(6),3,8,11,13,15,17,21(25),22-decaen-22-amine], the TPM3-NTRK1-wt/CD74-ROS1-G2032R result is reported as “B (bin B for high selectivity, ratio>10-fold)”; the TPM3-NTRK1-wt/CD74-ROS1-wt entry is recorded as “A (bin A for very high selectivity, ratio>30-fold)”; the TPM3-NTRK1-wt/EML4-ALK-L1196M-G1202R result is reported as “C (bin C for moderate selectivity, ratio≥1)”; the TPM3-NTRK1-wt/EML4-ALK-wt result is “A (bin A for very high selectivity, ratio>30-fold)”.

Consider `CCn1ncc2c1-c1cnc(N)c(n1)OC(C)c1cc(F)ccc1-c1nccn1C2` (stereo not drawn) [Example 163, 3-ethyl-16-fluoro-19-methyl-20-oxa-3,4,8,11,23,25-hexaazapentacyclo[19.3.1.0^2,^6.0^8,^12.0^13,^18]pentacosa-1(24),2(6),4,9,11,13,15,17,21(25),22-decaen-22-amine], for which the TPM3-NTRK1-wt/CD74-ROS1-G2032R result is on record as “A (bin A for very high selectivity, ratio>30-fold)”; the TPM3-NTRK1-wt/CD74-ROS1-wt result is on record as “A (bin A for very high selectivity, ratio>30-fold)”; the TPM3-NTRK1-wt/EML4-ALK-L1196M-G1202R result is “C (bin C for moderate selectivity, ratio≥1)”; the TPM3-NTRK1-wt/EML4-ALK-wt result was “A (bin A for very high selectivity, ratio>30-fold)”.

For `CCn1ncc2c1-c1cnc(N)c(n1)OC(C)c1cc(F)ccc1-c1c(cnn1C)C2` (stereo not drawn) [Example 164, 3-ethyl-16-fluoro-11,19-dimethyl-20-oxa-3,4,10,11,23,25-hexaazapentacyclo[19.3.1.0^2,^6.0^8,^12.0^13,^18]pentacosa-1(24),2(6),4,8(12),9,13,15,17,21(25),22-decaen-22-amine], the TPM3-NTRK1-wt/CD74-ROS1-G2032R entry is “A (bin A for very high selectivity, ratio>30-fold)”; the TPM3-NTRK1-wt/EML4-ALK-L1196M-G1202R result is “C (bin C for moderate selectivity, ratio≥1)”; the TPM3-NTRK1-wt/EML4-ALK-wt entry is reported as “B (bin B for high selectivity, ratio>10-fold)”.

For `CCn1ncc2c1-c1ccc(F)cc1C(C)Oc1nc(cnc1N)-c1c(cnn1C)C2` (stereo not drawn) [Example 165, 11-ethyl-16-fluoro-3,19-dimethyl-20-oxa-3,4,10,11,23,25-hexaazapentacyclo[19.3.1.0^2,^6.0^8,^12.0^13,^18]pentacosa-1(24),2(6),4,8(12),9,13,15,17,21(25),22-decaen-22-amine], the TPM3-NTRK1-wt/CD74-ROS1-G2032R result is given as “C (bin C for moderate selectivity, ratio≥1)”; the TPM3-NTRK1-wt/CD74-ROS1-wt result is “B (bin B for high selectivity, ratio>10-fold)”; the TPM3-NTRK1-wt/EML4-ALK-L1196M-G1202R entry is listed as “D (bin D for low selectivity, ratio<1)”; the TPM3-NTRK1-wt/EML4-ALK-wt result is listed as “C (bin C for moderate selectivity, ratio≥1)”.

As to `CC1Oc2cc(cnc2N)-c2c(n[nH]c2C#N)Cc2cnn(C)c2-c2ccc(F)cc21` (stereo not drawn) [Example 168, 22-amino-16-fluoro-11,19-dimethyl-20-oxa-4,5,10,11,23-pentaazapentacyclo[19.3.1.0^2,^6.0^8,^12.0^13,^18]pentacosa-1(24),2,5,8(12),9,13,15,17,21(25),22-decaene-3-carbonitrile], the TPM3-NTRK1-wt/CD74-ROS1-G2032R result is “A (bin A for very high selectivity, ratio>30-fold)”; the TPM3-NTRK1-wt/CD74-ROS1-wt result is reported as “A (bin A for very high selectivity, ratio>30-fold)”; the TPM3-NTRK1-wt/EML4-ALK-L1196M-G1202R result is listed as “B (bin B for high selectivity, ratio>10-fold)”; the TPM3-NTRK1-wt/EML4-ALK-wt result is “A (bin A for very high selectivity, ratio>30-fold)”.

`C[C@H]1Oc2cc(cnc2N)-c2c(nn(C)c2C#N)Cc2ccnn2-c2ccc(F)cc21` [Example 169, (19R)-22-amino-16-fluoro-4,19-dimethyl-20-oxa-4,5,11,12,23-pentaazapentacyclo[19.3.1.0^2,^6.0^8,^12.0^13,^18]pentacosa-1(24),2,5,8,10,13,15,17,21(25),22-decaene-3-carbonitrile]: the TPM3-NTRK1-wt/CD74-ROS1-G2032R result is listed as “C (bin C for moderate selectivity, ratio≥1)”; the TPM3-NTRK1-wt/CD74-ROS1-wt entry is on record as “A (bin A for very high selectivity, ratio>30-fold)”; the TPM3-NTRK1-wt/EML4-ALK-L1196M-G1202R result is given as “D (bin D for low selectivity, ratio<1)”; the TPM3-NTRK1-wt/EML4-ALK-wt entry is reported as “A (bin A for very high selectivity, ratio>30-fold)”.

In the case of `CCc1nn(C)c2c1-c1cnc(N)c(c1)O[C@H](C)c1cc(F)ccc1-c1nn(C)cc1C2` [Example 171, (19R)-3-ethyl-16-fluoro-5,10,19-trimethyl-20-oxa-4,5,10,11,23-pentaazapentacyclo[19.3.1.0^2,^6.0^8,^12.0^13,^18]pentacosa-1(24),2(6),3,8,11,13,15,17,21(25),22-decaen-22-amine], the TPM3-NTRK1-wt/CD74-ROS1-G2032R entry is “A (bin A for very high selectivity, ratio>30-fold)”; the TPM3-NTRK1-wt/CD74-ROS1-wt entry is on record as “A (bin A for very high selectivity, ratio>30-fold)”; the TPM3-NTRK1-wt/EML4-ALK-L1196M-G1202R result is reported as “B (bin B for high selectivity, ratio>10-fold)”; the TPM3-NTRK1-wt/EML4-ALK-wt result is “A (bin A for very high selectivity, ratio>30-fold)”.

As for `C[C@H]1Oc2cc(cnc2N)-c2c(CC(F)F)nn(C)c2Cc2cn(C)nc2-c2ccc(F)cc21` [Example 172, (19R)-3-(2,2-difluoroethyl)-16-fluoro-5,10,19-trimethyl-20-oxa-4,5,10,11,23-pentaazapentacyclo[19.3.1.0^2,^6.0^8,^12.0^13,^18]pentacosa-1(24),2(6),3,8,11,13,15,17,21(25),22-decaen-22-amine], the TPM3-NTRK1-wt/CD74-ROS1-G2032R result is given as “A (bin A for very high selectivity, ratio>30-fold)”; the TPM3-NTRK1-wt/CD74-ROS1-wt result was “A (bin A for very high selectivity, ratio>30-fold)”; the TPM3-NTRK1-wt/EML4-ALK-L1196M-G1202R result is given as “A (bin A for very high selectivity, ratio>30-fold)”; the TPM3-NTRK1-wt/EML4-ALK-wt result is listed as “A (bin A for very high selectivity, ratio>30-fold)”.

For the compound `CCc1nn(C)c2c1-c1cnc(N)c(c1)O[C@H](C)c1cc(F)ccc1-c1nc(C)sc1C2` [Example 173, (19R)-3-ethyl-16-fluoro-5,10,19-trimethyl-20-oxa-9-thia-4,5,11,23-tetraazapentacyclo[19.3.1.0^2,^6.0^8,^12.0^13,^18]pentacosa-1(24),2(6),3,8(12),10,13,15,17,21(25),22-decaen-22-amine], the TPM3-NTRK1-wt/CD74-ROS1-G2032R entry is “A (bin A for very high selectivity, ratio>30-fold)”; the TPM3-NTRK1-wt/CD74-ROS1-wt entry was “A (bin A for very high selectivity, ratio>30-fold)”; the TPM3-NTRK1-wt/EML4-ALK-L1196M-G1202R result is listed as “B (bin B for high selectivity, ratio>10-fold)”; the TPM3-NTRK1-wt/EML4-ALK-wt result is given as “A (bin A for very high selectivity, ratio>30-fold)”.

As to `C[C@H]1Oc2cc(cnc2N)-c2c(nn(C)c2C2CCC2)Cc2ccnn2-c2ccc(F)cc21` [Example 174, (19R)-3-cyclobutyl-16-fluoro-4,19-dimethyl-20-oxa-4,5,11,12,23-pentaazapentacyclo[19.3.1.0^2,^6.0^8,^12.0^13,^18]pentacosa-1(24),2,5,8,10,13,15,17,21(25),22-decaen-22-amine], the TPM3-NTRK1-wt/CD74-ROS1-G2032R entry is given as “B (bin B for high selectivity, ratio>10-fold)”; the TPM3-NTRK1-wt/CD74-ROS1-wt entry was “A (bin A for very high selectivity, ratio>30-fold)”; the TPM3-NTRK1-wt/EML4-ALK-L1196M-G1202R result was “C (bin C for moderate selectivity, ratio≥1)”; the TPM3-NTRK1-wt/EML4-ALK-wt result is given as “A (bin A for very high selectivity, ratio>30-fold)”.

In the case of `CCc1nn(C)c2c1-c1cnc(N)c(c1)OCc1cc(F)ccc1-c1nc(C)sc1C2` [Example 175, 3-ethyl-16-fluoro-5,10-dimethyl-20-oxa-9-thia-4,5,11,23-tetraazapentacyclo[19.3.1.0^2,^6.0^8,^12.0^13,^18]pentacosa-1(24),2(6),3,8(12),10,13,15,17,21(25),22-decaen-22-amine], the TPM3-NTRK1-wt/CD74-ROS1-G2032R entry is given as “A (bin A for very high selectivity, ratio>30-fold)”; the TPM3-NTRK1-wt/CD74-ROS1-wt entry is listed as “A (bin A for very high selectivity, ratio>30-fold)”; the TPM3-NTRK1-wt/EML4-ALK-L1196M-G1202R result is listed as “B (bin B for high selectivity, ratio>10-fold)”; the TPM3-NTRK1-wt/EML4-ALK-wt result is “A (bin A for very high selectivity, ratio>30-fold)”.

Regarding `CCc1nn(C)c2c1-c1cnc(N)c(c1)OCc1cc(F)ccc1-c1nn(C)cc1C2` [Example 176, 3-ethyl-16-fluoro-5,10-dimethyl-20-oxa-4,5,10,11,23-pentaazapentacyclo[19.3.1.0^2,^6.0^8,^12.0^13,^18]pentacosa-1(24),2(6),3,8,11,13,15,17,21(25),22-decaen-22-amine], the TPM3-NTRK1-wt/CD74-ROS1-G2032R entry is “A (bin A for very high selectivity, ratio>30-fold)”; the TPM3-NTRK1-wt/CD74-ROS1-wt result is on record as “A (bin A for very high selectivity, ratio>30-fold)”; the TPM3-NTRK1-wt/EML4-ALK-L1196M-G1202R result is recorded as “B (bin B for high selectivity, ratio>10-fold)”; the TPM3-NTRK1-wt/EML4-ALK-wt result was “A (bin A for very high selectivity, ratio>30-fold)”.

For the compound `C[C@H]1Oc2cc(cnc2N)-c2c(nn(C)c2CC2CC2)Cc2ccnn2-c2ccc(F)cc21` [Example 177, (19R)-3-(cyclopropylmethyl)-16-fluoro-4,19-dimethyl-20-oxa-4,5,11,12,23-pentaazapentacyclo[19.3.1.0^2,^6.0^8,^12.0^13,^18]pentacosa-1(24),2,5,8,10,13,15,17,21(25),22-decaen-22-amine], the TPM3-NTRK1-wt/CD74-ROS1-G2032R result is “A (bin A for very high selectivity, ratio>30-fold)”; the TPM3-NTRK1-wt/CD74-ROS1-wt entry is “A (bin A for very high selectivity, ratio>30-fold)”; the TPM3-NTRK1-wt/EML4-ALK-L1196M-G1202R result is reported as “B (bin B for high selectivity, ratio>10-fold)”; the TPM3-NTRK1-wt/EML4-ALK-wt entry is “A (bin A for very high selectivity, ratio>30-fold)”.
